Assay results: ChEMBL document CHEMBL3792279, “Design, synthesis, and evaluation of hinge-binder tethered 1,2,3-triazolylsalicylamide derivatives as Aurora kinase inhibitors” (Bioorg Med Chem, 2016)

Legend:
Aurora kinase B = Aurora kinase B (Homo sapiens, UniProt Q96GD4); test: Inhibition of human Aurora B using H-LRRASLG as substrate after 2 hrs by HotSpot assay in presence of 33P-ATP and 10 uM ATP
Aurora kinase A = target: T1, Aurora kinase A (Homo sapiens, UniProt O14965); test: Inhibition of human Aurora A using H-LRRASLG as substrate after 2 hrs by HotSpot assay in presence of 33P-ATP and 10 uM ATP
T1 sequence (O14965 whole entry): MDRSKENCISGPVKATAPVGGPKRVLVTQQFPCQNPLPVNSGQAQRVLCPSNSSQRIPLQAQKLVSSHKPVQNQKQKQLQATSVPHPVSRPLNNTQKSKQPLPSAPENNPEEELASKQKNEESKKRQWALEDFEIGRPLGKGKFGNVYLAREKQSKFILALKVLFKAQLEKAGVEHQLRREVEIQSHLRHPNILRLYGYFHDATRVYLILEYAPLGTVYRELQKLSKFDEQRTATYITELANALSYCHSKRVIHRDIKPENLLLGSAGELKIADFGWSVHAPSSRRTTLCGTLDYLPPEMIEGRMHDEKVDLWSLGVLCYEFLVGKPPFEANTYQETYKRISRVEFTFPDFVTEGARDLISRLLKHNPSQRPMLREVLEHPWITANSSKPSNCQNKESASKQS

Chain of Aurora kinase B (Q96GD4 whole entry): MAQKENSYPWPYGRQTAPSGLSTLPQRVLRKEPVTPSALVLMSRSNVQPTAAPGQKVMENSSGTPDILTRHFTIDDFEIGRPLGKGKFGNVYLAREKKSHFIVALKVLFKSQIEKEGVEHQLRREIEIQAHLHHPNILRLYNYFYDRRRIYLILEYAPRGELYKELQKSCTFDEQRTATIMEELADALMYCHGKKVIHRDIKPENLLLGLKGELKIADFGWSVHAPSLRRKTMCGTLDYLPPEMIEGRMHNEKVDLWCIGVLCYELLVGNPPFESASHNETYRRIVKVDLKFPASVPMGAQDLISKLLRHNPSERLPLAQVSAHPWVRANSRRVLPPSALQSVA

Structure (SMILES)	IC50 (Aurora kinase B) [µM]	IC50 (Aurora kinase A) [µM]
COC(=O)c1cccc(NC(=O)c2cc(-n3cc(CNc4ccccc4)nn3)ccc2O)c1	36.5	5.15
COC(=O)c1cccc(NC(=O)c2cc(-n3cc(CNc4cc(C)[nH]n4)nn3)ccc2O)c1	49.5	13.7
COC(=O)c1cccc(NC(=O)c2cc(-n3cc(CNc4nc5ccccc5o4)nn3)ccc2O)c1	10.2	3.52
COC(=O)c1cccc(NC(=O)c2cc(-n3cc(CNc4cc(C)ccn4)nn3)ccc2O)c1	16.3	6.07
COC(=O)c1cccc(NC(=O)c2cc(-n3cc(CCNc4ncccn4)nn3)ccc2O)c1	15.2	7.67
COC(=O)c1cccc(NC(=O)c2cc(-n3cc(CNc4ccccn4)nn3)ccc2O)c1	32.1	6.43
COC(=O)c1cccc(NC(=O)c2cc(-n3cc(-c4ccc5nccnc5c4)nn3)ccc2O)c1	7.3	0.607
COC(=O)c1cccc(NC(=O)c2cc(-n3cc(CNc4ncnc5ccsc45)nn3)ccc2O)c1	20.1	0.801
COC(=O)c1cccc(NC(=O)c2cc(-n3cc(CNc4ncccn4)nn3)ccc2O)c1	40.7	15.4
COC(=O)c1cccc(NC(=O)c2cc(-n3cc(CNc4cc(C)on4)nn3)ccc2O)c1	54.8	12.4

Compounds with a lower IC50 (Aurora kinase B), results first:

IC50 (Aurora kinase B) [µM]	IC50 (Aurora kinase A) [µM]	Structure (SMILES)
5.94	0.768	COC(=O)c1cccc(NC(=O)c2cc(-n3cc(-c4cc(OC)cc(OC)c4)nn3)ccc2O)c1
2.19	0.638	COC(=O)c1cccc(NC(=O)c2cc(-n3cc(-c4ccc5c(c4)OCO5)nn3)ccc2O)c1
1.33	0.284	COC(=O)c1cccc(NC(=O)c2cc(-n3cc(-c4cccc([N+](=O)[O-])c4)nn3)ccc2O)c1
0.364	2.97	COC(=O)c1cccc(NC(=O)c2cc(-n3cc(CCNc4ncnc5ccsc45)nn3)ccc2O)c1
